Source: patent US9796719B2, “Compounds and pharmaceutical compositions thereof for the treatment of inflammatory disorders” (GALAPAGOS NV, priority 2013, dated 2017)

The compounds below were run against hENPP2 (UniProtKB/SwissProt Sequence ref Q13822) (Homo sapiens (Human), UniProt Q13822) (assay: LPC hENPP2 assay (choline release, LPC as substrate)).
Assay type: biochemical
Protocol: The principle of the assay consists in quantifying the released choline with an enzymatic method using choline oxidase and peroxidase. Choline oxydation by choline oxydase releases betaine and peroxide. The latter is quantified in presence of HRP that converts the peroxide detection agent TOOS and 4-aminoantipyrine into quinoneimine dye. The appearance of quinoneimine dye is measured spectrophotometrically at 555 nm and is proportional to the amount of choline released by ENPP2. Inhibition of ENPP2 will result in a decrease of the signal.
The reaction is terminated and choline quantified by the addition of a 25 μL of a mixture containing 0.6 U/mL of choline oxidase, 0.6 U/mL of peroxydase, 1.8 mM TOOS, 1.2 mM amino-antipyrine, 20 mM EGTA (stop-developer solution) diluted in the buffer described above. […] is read on the Envision after an incubation of 30 min at room temperature (Excitation 555 nm, excitation light=70%).

SMILES	IC50
CCOC(=O)NCCN1CCN(c2ccc3nc(CC)c(N(C)c4nc(-c5ccc(F)cc5)cs4)n3n2)CC1 [Cpd 58, ethyl 2-(4-(2-ethyl-3-((4-(4-fluorophenyl)thiazol-2-yl)(methyl)amino)imidazo[1,2-b]pyridazin-6-yl)piperazin-1-yl)ethylcarbamate]	> 1000 nM
CCc1nc2ccc(N3CCCC(N4CCOCC4)C3)nn2c1N(C)c1nc(-c2ccc(F)cc2)cs1 (stereo not drawn) [Cpd 110, N-(2-ethyl-6-(3-morpholino-piperidin-1-yl)imidazo[1,2-b]pyridazin-3-yl)-4-(4-fluorophenyl)-N-methylthiazol-2-amine]	> 1000 nM
CCc1nc2ccc(N3CCN(C4COC4)CC3)nn2c1N(C)c1nc(-c2ccc(F)cc2)cs1 [Compound 38, N-(2-ethyl-6-(4-(oxetan-3-yl)piperazin-1-yl)imidazo[1,2-b]pyridazin-3-yl)-4-(4-fluorophenyl)-N-methylthiazol-2-amine]	> 1000 nM
CCc1nc2ccc(N3CCC(NC(=O)CO)C3)nn2c1N(C)c1nc(-c2ccc(F)cc2)cs1 (stereo not drawn) [Compound 136, N-(1-(2-ethyl-3-((4-(4-fluorophenyl)thiazol-2-yl)(methyl)amino)imidazo[1,2-b]pyridazin-6-yl)pyrrolidin-3-yl)-2-hydroxyacetamide]	> 1000 nM
CCc1nc2ccc(N3CC(C(=O)N4CCC(O)C4)C3)nn2c1N(C)c1nc(-c2ccc(F)cc2)cs1 (stereo not drawn) [Cpd 159, (1-(2-ethyl-3-((4-(4-fluorophenyl)thiazol-2-yl)(methyl)amino)imidazo[1,2-b]pyridazin-6-yl)azetidin-3-yl)(3-hydroxypyrrolidin-1-yl)methanone]	> 1000 nM
CCc1nc2ccc(N3CCN(C4CCOCC4)CC3)nn2c1N(C)c1nc(-c2ccc(F)cc2)cs1 [Cpd 39, N-(2-ethyl-6-(4-(tetrahydro-2H-pyran-4-yl)piperazin-1-yl)imidazo[1,2-b]pyridazin-3-yl)-4-(4-fluorophenyl)-N-methylthiazol-2-amine]	> 1000 nM
CCc1nc2ccc(N3CCC(NC(=O)CO)CC3)nn2c1N(C)c1nc(-c2ccc(F)cc2)cs1 [Cpd 85, N-(1-(2-ethyl-3-((4-(4-fluorophenyl)thiazol-2-yl)(methyl)amino)imidazo[1,2-b]pyridazin-6-yl)piperidin-4-yl)-2-hydroxyacetamide]	> 1000 nM
CCc1nc2ccc(N3CCC(CN)CC3)nn2c1N(C)c1nc(-c2ccc(F)cc2)cs1 [Cpd 104, N-(6-(4-(aminomethyl)piperidin-1-yl)-2-ethylimidazo[1,2-b]pyridazin-3-yl)-4-(4-fluorophenyl)-N-methylthiazol-2-amine]	> 1000 nM
CCc1nc2ccc(N3CCC(=O)C3)nn2c1N(C)c1nc(-c2ccc(F)cc2)c(Cl)s1 [Compound 132, 1-(3-((5-chloro-4-(4-fluorophenyl)thiazol-2-yl)(methyl)amino)-2-ethylimidazo[1,2-b]pyridazin-6-yl)pyrrolidin-3-one]	> 1000 nM
CCc1nc2ccc(N3CCC(c4ccccc4)CC3)nn2c1N(C)c1nc(-c2ccc(F)cc2)cs1 [Cpd 113, N-(2-ethyl-6-(4-phenylpiperidin-1-yl)imidazo[1,2-b]pyridazin-3-yl)-4-(4-fluorophenyl)-N-methylthiazol-2-amine]	> 1000 nM
CCc1nc2ccc(N3CCN(CC(=O)NCCO)CC3)nn2c1N(C)c1nc(-c2ccc(F)cc2)cs1 [Cpd 35, 2-(4-(2-ethyl-3-((4-(4-fluorophenyl)thiazol-2-yl)(methyl)amino)imidazo[1,2-b]pyridazin-6-yl)piperazin-1-yl)-N-(2-hydroxyethyl) acetamide]	> 1000 nM
CCNC(=O)COC1CCCN(c2ccc3nc(CC)c(N(C)c4nc(-c5ccc(F)cc5)cs4)n3n2)C1 (stereo not drawn) [Cpd 92, N-ethyl-2-(1-(2-ethyl-3-((4-(4-fluorophenyl)thiazol-2-yl)(methyl)amino)imidazo[1,2-b]pyridazin-6-yl)piperidin-3-yloxy)acetamide]	> 1000 nM
CCc1nc2cnc(N3CCNCC3)cn2c1N(C)c1nc(-c2ccc(F)cc2C#N)cs1 [Cpd 15, 2-(2-((2-ethyl-6-(piperazin-1-yl)imidazo[1,2-a]pyrazin-3-yl)(methyl)amino)thiazol-4-yl)-5-fluorobenzonitrile]	> 1000 nM
CCc1nc2cnc(C3=CCN(S(C)(=O)=O)CC3)cn2c1N(C)c1nc(-c2ccc(F)cc2)c(C#N)s1 [Cpd 20, 2-((2-ethyl-6-(1-(methylsulfonyl)-1,2,3,6-tetrahydropyridin-4-yl)imidazo[1,2-a]pyrazin-3-yl)(methyl)amino)-4-(4-fluorophenyl) thiazole-5-carbonitrile]	> 1000 nM

Other lines, results leading:

IC50	SMILES
0.01 to 100 nM	CCc1nc2ccc(N3CCC(N4CCC(CO)CC4)C3)nn2c1N(C)c1nc(-c2ccc(F)cc2)c(C#N)s1 (stereo not drawn) [Cpd 179, 2-((2-ethyl-6-(3-(4-(hydroxymethyl)piperidin-1-yl)pyrrolidin-1-yl)imidazo[1,2-b]pyridazin-3-yl)(methyl)amino)-4-(4-fluorophenyl) thiazole-5-carbonitrile]
100 to 500 nM	CCc1nc2ccc(N3CCC4(CN(C)C(=O)O4)C3)nn2c1N(C)c1nc(-c2ccc(F)cc2)cs1 (stereo not drawn) [Cpd 119, 7-(2-ethyl-3-((4-(4-fluorophenyl)thiazol-2-yl)(methyl)amino)imidazo[1,2-b]pyridazin-6-yl)-3-methyl-1-oxa-3,7-diazaspiro[4.4] nonan-2-one]
500 to 1000 nM	CCc1nc2ccc(N3CCC(NC(=O)C4CCNCC4)CC3)nn2c1N(C)c1nc(-c2ccc(F)cc2)cs1 [Cpd 88, N-(1-(2-ethyl-3-((4-(4-fluorophenyl)thiazol-2-yl)(methyl)amino)imidazo[1,2-b]pyridazin-6-yl)piperidin-4-yl)piperidine-4-carboxamide]
100 to 500 nM	CCc1nc2ccc(N3CCN(CC(=O)N(C)C(C)C)CC3)nn2c1N(C)c1nc(-c2ccc(F)cc2)cs1 [Cpd 37, 2-(4-(2-ethyl-3-((4-(4-fluorophenyl)thiazol-2-yl)(methyl)amino)imidazo[1,2-b]pyridazin-6-yl)piperazin-1-yl)-N-isopropyl-N-methylacetamide]
0.01 to 100 nM	CCc1nc2ccc(N3CCC(N4CCC(N(C)C(C)=O)CC4)C3)nn2c1N(C)c1nc(-c2ccc(F)cc2)c(C#N)s1 (stereo not drawn) [Cpd 181, N-(1-(1-(3-((5-cyano-4-(4-fluorophenyl)thiazol-2-yl)(methyl)amino)-2-ethylimidazo[1,2-b]pyridazin-6-yl)pyrrolidin-3-yl)piperidin-4-yl)-N-methylacetamide]
100 to 500 nM	CCc1nc2ccc(N3CCN(CC(=O)N(C)C)CC3)nn2c1N(C)c1nc(-c2ccc(F)cc2C)cs1 [Cpd 73, 2-(4-(2-ethyl-3-((4-(4-fluoro-2-methylphenyl)thiazol-2-yl)(methyl)amino)imidazo[1,2-b]pyridazin-6-yl)piperazin-1-yl)-N,N-dimethylacetamide]
500 to 1000 nM	CCc1nc2ccc(N3CCN(CC(=O)NC)CC3)nn2c1N(C)c1nc(-c2ccc(F)cc2)cs1 [Cpd 30]
500 to 1000 nM	CCc1nc2ccc(N3CC(NCC(=O)NC)C3)nn2c1N(C)c1nc(-c2ccc(F)cc2)cs1 [Cpd 157, 2-(1-(2-ethyl-3-((4-(4-fluorophenyl)thiazol-2-yl)(methyl)amino)imidazo[1,2-b]pyridazin-6-yl)azetidin-3-ylamino)-N-methylacetamide]
0.01 to 100 nM	CCc1nc2ccc(N3CCC4(CCN(C(C)=O)C4)C3)nn2c1N(C)c1nc(-c2ccc(F)cc2)c(C#N)s1 (stereo not drawn) [Cpd 167, 2-((6-(7-acetoyl-2,7-diazaspiro[4.4]nonan-2-yl)-2-ethylimidazo[1,2-b]pyridazin-3-yl)(methyl)amino)-4-(4-fluorophenyl) thiazole-5-carbonitrile]
0.01 to 100 nM	CCc1nc2ccc(N3C[C@H](O)[C@@H](N4CCOCC4)C3)nn2c1N(C)c1nc(-c2ccc(F)cc2)c(C#N)s1 [Cpd 184]
0.01 to 100 nM	CCc1nc2ccc(N3CCC(O)(CNC(=O)OC)C3)nn2c1N(C)c1nc(-c2ccc(F)cc2)c(C#N)s1 (stereo not drawn) [Cpd 168, methyl (1-(3-((5-cyano-4-(4-fluorophenyl)thiazol-2-yl)(methyl)amino)-2-ethylimidazo[1,2-b]pyridazin-6-yl)-3-hydroxypyrrolidin-3-yl)]
500 to 1000 nM	CCc1nc2ccc(N3CC(NCC(=O)N(C)C)C3)nn2c1N(C)c1nc(-c2ccc(F)cc2)cs1 [Cpd 156, 2-(1-(2-ethyl-3-((4-(4-fluorophenyl)thiazol-2-yl)(methyl)amino)imidazo[1,2-b]pyridazin-6-yl)azetidin-3-ylamino)-N,N-dimethylacetamide]
100 to 500 nM	CCc1nc2ccc(N3CCN(CC(=O)N4CCC(F)(F)C4)CC3)nn2c1N(C)c1nc(-c2ccc(F)cc2)cs1 [Cpd 31, 1-(3,3-difluoropyrrolidin-l-yl)-2-(4-(2-ethyl-3-((4-(4-fluorophenyl)thiazol-2-yl)(methyl)amino)imidazo[1,2-b]pyridazin-6-yl)piperazin-l-yl)ethanone]
500 to 1000 nM	CCc1nc2ccc(N3CCC(CNC(=O)C4CCOCC4)CC3)nn2c1N(C)c1nc(-c2ccc(F)cc2)cs1 [Cpd 107, N-((1-(2-ethyl-3-((4-(4-fluorophenyl)thiazol-2-yl)(methyl)amino)imidazo[1,2-b]pyridazin-6-yl)piperidin-4-yl)methyl) tetrahydro-2H-pyran-4-carboxamide]
500 to 1000 nM	CCc1nc2ccc(N3CCC(N4CCOCC4)C3)nn2c1N(C)c1nc(-c2ccc(F)cc2)c(CO)s1 (stereo not drawn) [Cpd 148, (2-((2-ethyl-6-(3-morpholino-pyrrolidin-1-yl)imidazo[1,2-b]pyridazin-3-yl)(methyl)amino)-4-(4-fluorophenyl)thiazol-5-yl) methanol]
100 to 500 nM	CCc1nc2ccc(N3CCC(CO)C3)nn2c1N(C)c1nc(-c2ccc(F)cc2)c(C#N)s1 (stereo not drawn) [Cpd 173, 2-((2-ethyl-6-(3-(hydroxymethyl)pyrrolidin-1-yl)imidazo[1,2-b]pyridazin-3-yl)(methyl)amino)-4-(4-fluorophenyl) thiazole-5-carbonitrile]
